Test results taken from US20230405078A1, “DETECTION AND TREATMENT OF INTESTINAL FIBROSIS” (THE REGENTS OF THE UNIVERSITY OF CALIFORNIA, priority 2020, published 2023).
Where no end group is shown, it is not given here.

Tests used:
Format in all cases: in vivo
Salmonella-infected mice = experiment: Salmonella-mediated cecal fibrosis in mice; settings: Salmonella-infected mice with lentiviral elafin overexpression
Protocol: Eight-week-old male and female 129Sv/J mice (#000691, Jackson Laboratories) were administered 20 mg streptomycin via oral gavage. Twenty-four hours later, the mice were orally infected with Salmonella typhimurium SL1344 strain 1×10^8 colony-forming units by oral gavage to induce cecal fibrosis.
Origene or miR205-5p-OFF lentivrus (mm35328) or miR205-5p-OE lentivirus (mm15214) from Applied Biological Materials on day 14. Some infected mice received oral antibiotics mixture in drinking water ad libitum from day 14 to day 21 to suppress intestinal microbiota. […]
H&E and Masson Trichrome (MT) staining were performed as described previously. Microphotographs were recorded at multiple locations and scored by two investigators blindly. Intestinal injuries were scored (0-12). The severity of intestinal fibrosis was assessed by MT staining and scored (0-3). […]
Total RNA was isolated by an RNeasy kit (#74104, Qiagen) and reverse transcribed into cDNA by a high-capacity cDNA reverse transcription kit (#4368813, ThermoFisher). […] Relative mRNA/miRNA quantification was performed by comparing test groups and control groups after normalization with endogenous control genes. The fold changes are expressed as 2^ΔΔCt. […]
(§1) Overall disease activity (ODA) was calculated by % change of histology and fibrosis scores and colonic mRNA expression of fibrosis- and inflammation-related genes. […]

HFD-treated male mice [1] = experiment: Leptin sensitivity test in HFD-treated male mice
Protocol: FIG. 35. Elafin-dependent serum exosome-mediated inhibition of hyperphagia and hyperglycemia was reversed by miR181b-5p and miR219-5p inhibitors. (A) Serum exosome transplantation to HFD-treated mice. The miRNA inhibitors were injected on the same day as exosome injection. (B) Change in fat mass. (C) No significant change in body weight among all groups over 7 days after miRNA inhibitor and exosome injection. (D) Fasting blood glucose levels 7 days after exosome and miRNA inhibitor injection. (E) Daily food consumption per mouse. (F) Serum leptin levels measured on day seven post-injection. (G, H) Leptin, Cd36, and adiponectin mRNA expression in the mesenteric fat and epididymal fat of HFD-treated mice with exosome and miRNA inhibitor injection. (I) Leptin sensitivity test: The RD/HFD-treated mice were injected with leptin for 3 days after elafin-LV injection. (J, K) Daily food consumption and fasting blood glucose levels at 24 h after the last leptin injection. Each group consists of 8 mice.
Leptin sensitivity tests were performed by injecting 1 μg/kg leptin intraperitoneally (#450-31, Peprotech) daily for 3 days. At the endpoint of the experiments, mice were fasted for 6 h and tested for fasting blood glucose and cholesterol levels with a drop of tail vein blood using Freestyle Lite blood glucose meter and test strips (Abbott Diabetes Care) and Accutrend Plus meter and test strips (Roche), respectively. The oral glucose tolerance test (OGTT) was performed by feeding D-glucose (1 g/kg) to fasted mice via oral gavage, and the blood glucose level was measured 2 h after oral glucose feeding. Blood glucose and cholesterol levels are presented as mg/dL. Measurements of fasting blood glucose levels, blood total cholesterol levels, food consumption, and fat/lean mass (EchoMRl) were performed as described in our previous report.
For inhibition of miRNAs, control (Y100199006), miR-181b-5p (YC10201288-FZA), and miR-219-5p (YC10201241-FZA) inhibitors (Qiagen) were dissolved in PBS. […]

[2] = tested on: HFD-treated elafin-overexpressing mice; experiment: Intraperitoneal IL-1β and IFNγ injection to HFD-treated elafin-overexpressing mice; settings: for effect on elafin-mediated inhibition of fat mass and fasting blood glucose levels / effect on elafin-mediated inhibition of liver steatosis: mouse, in vivo
Excerpt: FIG. 33. Circulating immune cells mediated the anti-obesity effects of elafin in HFD-treated male mice. (A) Circulating immune cell mRNA expression in the HFD-treated mice with and without lentiviral elafin overexpression. (B) Splenocyte transplantation to HFD-treated Rag−/− mice. (C) Physiological parameters of HFD-treated Rag−/− recipient mice after splenocyte transplantation. Transplantation of splenocytes from elafin-overexpressing donors caused reduced fat mass, body weight, and food consumption and increased leptin levels in the Rag−/− recipient mice. (D) Mesenteric fat and epididymal fat tissue mRNA expression in HFD- treated mice with and without lentiviral elafin overexpression. (E) Determination of the physiological effects of intraperitoneal IL-1β and IFNγ injection to HFD-treated elafin-expressing mice. IL-1β or IFNγ was injected on the same day as elafin-expressing lentivirus injection. (F) Daily food consumption, (G) serum leptin levels. (H) Change in body weight. (I) Change in fat mass. (J) Fasting blood glucose levels. Each group consists of 8 mice.
Some groups were injected with IL-1β protein 2.5 μg per mouse (#211-11B Peprotech) or IFNγ protein 5 μg per mouse (#315-05 Peprotech) intraperitoneally to increase circulating IL-1β or IFNγ levels.

HFD-treated male mice [3] = experiment: Oral and subcutaneous administration of modified elafin to HFD-treated male mice; settings: 14 days
Protocol: FIG. 36. Subcutaneous and oral administration of modified elafin inhibited hyperphagia and hyperglycemia in HFD-treated male mice. (A) Elafin (1 mg/kg) was injected into RD-treated male mice subcutaneously. Tail-vein blood samples were collected for elafin ELISA. This mouse experiment was intended for the determination of basic pharmacokinetics of elafin, but not the determination of physiology of elafin. (B) HFD-treated mice were treated with either oral gavage of Elafin-Eudragit formulation (10 mg/kg) daily or subcutaneous injection of PEG-elafin (3.25 mg/kg) every 48 h for 14 days. Serum elafin levels. (C) Serum leptin levels. (D) Serum IFNγ and IL-1β levels. (E) Daily food consumption. (F) Change in fat mass. (G) Change in body weight over 14 days. (H) Fasting blood glucose levels. Each group consists of 8 mice.
Oral and subcutaneous administration of modified elafin to mice. Eight-week-old male c57BL/6J (JAX #000664) mice were fed with HFD for 8 weeks to induce obesity and hyperglycemia, followed by administration of Elafin-Eudragit formulation (10 mg/kg) via oral gavage daily or subcutaneous injection of polyethylene glycol conjugated (PEGylated) elafin (3.25 mg/kg) every 48 h to mice for 14 days. Oral Elafin-Eudragit formulation was made by Dr. Xingguo Cheng at the Southwest Research Institute (SWRI), Texas. Elafin was coated with Eudragit FS3OD polymer. […] Elafin-Eudragit was packaged into microparticles using an SWRI-patented spinning disk atomization technology. This packaging prevented leakage of elafin in acidic, aqueous solution. The oral elafin-Eudragit formulation was dissolved in mildly acidified (pH 5) water containing 0.5% hydroxypropyl methylcellulose (HPMC). PEGylated elafin was made by conjugation to methoxyl-PEG12 (New England Peptide Company). Control groups received either oral Eudragit-HPMC solution or subcutaneous PEG injection.

TNBS-treated mice = experiment: TNBS-associated colonic fibrosis in mice; settings: TNBS-treated mice
Protocol: Eight-week-old male and female CD-1 mice (#022, Charles River Laboratories) were injected with 50pL TNBS solution (to induce colonic fibrosis) or 30% ethanol (vehicle) via enema weekly for five weeks. After the last TNBS injection, the mice were held for two additional weeks to develop colonic fibrosis. Some of the mice were injected with 5 μg/mouse of either control (PS100001) or elafin-expressing construct (RC203136) from
Origene via InvivoJetPEI transfection reagent (201-10G, Polyplus) intracolonically on the 9th day after the last TNBS injection or five days before the end of experiment.
Some of the mice received either a single intraperitoneal injection of 10 mg/kg anti-tumor necrosis factor-alpha (anti-TNFα) neutralizing antibody (6E0058, BioXCell) or oral antibiotic mixture in drinking water ad libitum from the 9th day after the last TNBS injection to the endpoint of the experiment. The antibiotics mixture contains kanamycin (0.4 mg/mL), gentamicin (0.035 mg/mL), colistin (850 U/mL), metronidazole (0.215 mg/mL), and vancomycin (0.045 mg/mL), which was routinely used by our laboratory for suppressing intestinal microbiota.
For PAR1/2 activation, some of the mice were injected with DMSO (50pL/mouse), 5 mg/kg PAR1 agonist TRAP-6, or 5 mg/kg PAR2 agonist SLIGKV-NH2 via enema on the 9th, 11th, and 13th days after the last TNBS injection.
For miRNA inhibition, some of the mice were injected with 5 mg/kg either control inhibitor or miR205-5p power inhibitor (Qiagen) […] via enema on the 9th, 11th, and 13th days after the last TNBS injection.
For Zeb1 manipulation, some mice received a single intraperitoneal injection (10^7 infectious units/mouse) of control lentivirus (PS100064V), Zeb1-overexpressing lentivirus (MR223095L2V), or Zeb1-shRNA lentivirus (TL513177V) from Origene, Inc. nine days after the last TNBS injection.
Dr. Xingguo Cheng produced the oral elafin-Eudragit-FS3OD formulation via a material transfer agreement (UCLA MTA2019-00000337) with the Southwest Research Institute (SWRI) in Texas. […] The mice were fed with either control-Eudragit or elafin-Eudragit in mildly acidified (pH 5) water containing 0.5% hydroxypropyl methylcellulose (HPMC) daily via oral gavage during the last five days of the experiment.
H&E and Masson Trichrome (MT) staining were performed as described previously. Microphotographs were recorded at multiple locations and scored by two investigators blindly. Intestinal injuries were scored (0-12). The severity of intestinal fibrosis was assessed by MT staining and scored (0-3). ZEB1 immunohistochemistry was performed using an anti-ZEB1 antibody (HPA027524, Sigma).
Total RNA was isolated by an RNeasy kit (#74104, Qiagen) and reverse transcribed into cDNA by a high-capacity cDNA reverse transcription kit (#4368813, ThermoFisher). PCR reactions were run with Taq Universal SYBR Green Supermix (1725120, Bio-Rad) and TaqMan real-time PCR assays (ThermoFisher) in a Bio-Rad CFX384 system. For the determination of miRNA expression, RNA was converted to cDNA using miRCURY LNA RT kit. PCR reactions were run with miRCURY LNA SYBR Green PCR kit and miRCURY LNA PCR assays (Qiagen). Relative mRNA/miRNA quantification was performed by comparing test groups and control groups after normalization with endogenous control genes. The fold changes are expressed as […]. […]
as §1

Compound: CC[C@H](C)[C@H](NC(=O)[C@H](CC1CCCCC1)NC(=O)c1ccno1)C(=O)NCc1cccc(C(=O)N2CCC(CN)CC2)c1 [GB110, reference compound]
- effect on elafin-mediated inhibition of cecal fibrosis / collagen deposition and fibrogenic mRNA expression (Salmonella-infected mice): reversed

Compound: IFNγ: IFNγ protein (Peprotech)
- effect on elafin-mediated decrease of food consumption and fasting blood glucose levels (HFD-treated male mice [1]; mouse, in vivo): reversed
- food consumption in elafin-overexpressing mice ([2]; IL-1β 2.5 μg or IFNγ 5 μg per mouse intraperitoneally): moderately increased
- effect on elafin-mediated inhibition of fat mass and fasting blood glucose levels [2]: reversed
- effect on elafin-mediated inhibition of liver steatosis [2]: reversed

Compound: IL-1β: IL-1β protein (Peprotech)
- effect on elafin-mediated inhibition of fat mass and fasting blood glucose levels [2]: reversed
- effect on elafin-mediated inhibition of liver steatosis [2]: reversed

Compound: Leptin: leptin (#450-31, Peprotech) injected intraperitoneally
- food consumption in HFD-treated elafin-overexpressing mice (HFD-treated male mice [1]; leptin 1 μg/kg intraperitoneally daily for 3 days): further reduced
- decrease of fasting blood glucose in HFD-treated elafin-overexpressing mice (HFD-treated male mice [1]; leptin daily for 3 days): not affected

Compound: PEG-Elafin: elafin conjugated to methoxyl-PEG12, for subcutaneous injection (AQEPVKGPVSTKPGSCPIILIRCAMLNPPNRCLKDTDCPGIKKCCEGSCGMACFVPQ; ends and bridges not checked; also: conjugated to methoxyl-PEG12, site not given here; UniProt P19957 61-117, looked up)
- circulating IFNγ levels (HFD-treated male mice [3]): significantly reduced
- circulating leptin levels (HFD-treated male mice [3]): significantly increased
- fasting blood glucose levels (HFD-treated male mice [3]): significantly reduced
- fat mass gain (HFD-treated male mice [3]): significantly reduced
- food consumption (HFD-treated male mice [3]): significantly reduced
- liver steatosis (HFD-treated male mice [3]): significantly reduced
- serum elafin levels versus lentiviral elafin overexpression (HFD-treated male mice [3]; Elafin-Eudragit 10 mg/kg oral daily, PEG-elafin 3.25 mg/kg s.c. every 48 h): comparable

Compound: TRAP-6 [PAR1 agonist]
- colonic injury and fibrosis (TNBS-treated mice): did not affect
